Laboratory results reported in the supplement of paper PMC10307832.

How the values were obtained:
Test in all cases: relative viability (nuclei count vs DMSO), 5 days (fraction); higher = more cells survive
[1] = compound: C1/C(=C\C2=CC=CS2)/C(=O)/C(=C/C3=CC=CS3)/C1 + CS(=O)(=O)CCNCc1ccc(-c2ccc3ncnc(Nc4ccc(OCc5cccc(F)c5)c(Cl)c4)c3c2)o1 [Lapatinib] (partner 2 µM)
Method in brief: (§1)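 Each reported value is a median over duplicate plates. It expresses relative viability: treated-well nuclei count divided by vehicle-well nuclei count. Lung cancer cell lines in 1536-well plates were dosed by pin tool a day after seeding, alone with one drug or with a fixed anchor-drug dose plus five library-drug doses (not always all listed) in √10 steps, and nuclei were counted after 5 days.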

[2] = compound: C1=CC(=CC=C1C2=CC(=C(S2)NC(=O)N)C(=O)N)F [TPCA-1] + CC(=O)Nc1cccc(-n2c(=O)n(C3CC3)c(=O)c3c(Nc4ccc(I)cc4F)n(C)c(=O)c(C)c32)c1 [Trametinib] (partner 0.02 µM)
Method in brief: as §1

[3] = compound: C[C@]12O[C@H](C[C@]1(O)CO)n1c3ccccc3c3c4c(c5c6ccccc6n2c5c31)CNC4=O [Lestaurtinib] + CCNC(=O)c1noc(-c2cc(C(C)C)c(O)cc2O)c1-c1ccc(CN2CCOCC2)cc1 [Luminespib] (partner 0.01 µM)
Method in brief: as §1

[4] = compound: C[C@]12O[C@H](C[C@]1(O)CO)n1c3ccccc3c3c4c(c5c6ccccc6n2c5c31)CNC4=O [Lestaurtinib] + Cc1nc(Nc2ncc(C(=O)Nc3c(C)cccc3Cl)s2)cc(N2CCN(CCO)CC2)n1 [Dasatinib] (partner 0.075 µM)
Method in brief: as §1

Cell Line: UMC-11
- relative viability ([1]; first compound 0.2 µM): 0.88
- relative viability ([1]; first compound 0.6325 µM): 0.98
- relative viability ([1]; first compound 2 µM): 1.19
- relative viability ([1]; first compound 6.325 µM): 0.628
- relative viability ([1]; first compound 20 µM): 1.1
- relative viability ([2]; first compound 0.04 µM): 0.648
- relative viability ([2]; first compound 0.1265 µM): 0.612
- relative viability ([2]; first compound 0.4 µM): 0.804
- relative viability ([2]; first compound 1.265 µM): 0.831
- relative viability ([2]; first compound 4 µM): 0.152
- relative viability ([3]; first compound 0.005 µM): 0.936
- relative viability ([3]; first compound 0.01581 µM): 0.992
- relative viability ([3]; first compound 0.05 µM): 0.675
- relative viability ([3]; first compound 0.1581 µM): 0.286
- relative viability ([3]; first compound 0.5 µM): 0.164
- relative viability ([4]; first compound 0.005 µM): 0.543
- relative viability ([4]; first compound 0.01581 µM): 0.501
- relative viability ([4]; first compound 0.05 µM): 0.247
- relative viability ([4]; first compound 0.1581 µM): 0.231
- relative viability ([4]; first compound 0.5 µM): 0.146
